For 15 compounds, IC50 results are on record in patent publication US20260125421A1, “ANTIVIRAL COMPOUNDS” (Hoffmann-La Roche Inc., priority 2022, published 2026).

What all share (assay): biochemical
One test has as its target SARS-CoV 3CL^pro (Severe acute respiratory syndrome coronavirus, UniProt P0C6X7).
The next test has as its target MERS-CoV 3CL^pro (Middle East respiratory syndrome-related coronavirus, UniProt K9N7C7).
The next test addresses T1, HCoV-229E 3CL^pro (Human coronavirus 229E, UniProt P0C6X1).
T1 construct: […]; made in house; host or cells: E. coli BL21 (DE3)

The target of a further test is T2, SARS-CoV-2 3CL^pro (Severe acute respiratory syndrome coronavirus 2, UniProt P0DTD1).
T2 construct: […]; made in house; host or cells: Escherichia coli

T1 sequence (P0C6X1 2966-3267): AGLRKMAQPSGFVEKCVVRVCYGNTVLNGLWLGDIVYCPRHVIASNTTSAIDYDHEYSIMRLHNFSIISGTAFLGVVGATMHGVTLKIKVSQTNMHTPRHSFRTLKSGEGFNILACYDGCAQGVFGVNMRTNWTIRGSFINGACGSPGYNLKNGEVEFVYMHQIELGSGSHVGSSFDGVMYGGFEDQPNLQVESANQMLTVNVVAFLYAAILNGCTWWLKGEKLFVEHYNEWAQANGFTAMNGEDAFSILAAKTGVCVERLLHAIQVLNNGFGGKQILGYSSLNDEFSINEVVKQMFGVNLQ
MERS-CoV 3CL^pro, sequence (K9N7C7 3248-3553): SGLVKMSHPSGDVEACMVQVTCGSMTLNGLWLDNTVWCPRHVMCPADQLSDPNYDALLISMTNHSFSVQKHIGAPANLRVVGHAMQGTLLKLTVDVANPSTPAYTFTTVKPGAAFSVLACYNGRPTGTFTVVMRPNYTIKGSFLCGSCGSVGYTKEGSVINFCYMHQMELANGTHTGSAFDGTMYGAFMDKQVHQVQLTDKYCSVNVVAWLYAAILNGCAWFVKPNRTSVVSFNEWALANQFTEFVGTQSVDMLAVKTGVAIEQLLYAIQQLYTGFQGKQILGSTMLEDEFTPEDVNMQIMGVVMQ

As usually defined, the IC50 is the point on the concentration scale where inhibition reaches its midpoint. Higher therefore signals weaker potency. For the compound `CC1(C)C[C@@H](CN(NC(=O)[C@@H]2[C@H]3CCC[C@H]3CN2C(=O)[C@@H](NC(=O)C(F)F)C(C)(C)C)C(=O)[C@H](F)Cl)C(=O)N1` [Example 11, N-[(1S)-1-[(3S,3aS,6aR)-3-[[[(2R)-2-chloro-2-fluoro-acetyl]-[[(3S)-5,5-dimethyl-2-oxo-pyrrolidin-3-yl]methyl]amino]carbamoyl]-3,3a,4,5,6,6a-hexahydro-1H-cyclopenta[c]pyrrole-2-carbonyl]-2,2-dimethyl-propyl]-2,2-difluoro-acetamide], the IC50 against SARS-CoV 3CL^pro was 14 nM; against MERS-CoV 3CL^pro, 909 nM; against HCoV-229E 3CL^pro, 1690 nM; against SARS-CoV-2 3CL^pro, 9 nM.

`CC[C@H](C)[C@H](NC(=O)C1(F)CC1)C(=O)N1C[C@H]2[C@@H]([C@H]1C(=O)NN(C[C@H]1CC(C)(C)NC1=O)C(=O)[C@@H](F)Cl)C2(C)C` [Example 19, N-[(1S,2S)-1-[(1R,2S,5S)-2-[[[(2S)-2-chloro-2-fluoro-acetyl]-[[(3R)-5,5-dimethyl-2-oxo-pyrrolidin-3-yl]methyl]amino]carbamoyl]-6,6-dimethyl-3-azabicyclo[3.1.0]hexane-3-carbonyl]-2-methyl-butyl]-1-fluoro-cyclopropanecarboxamide]: the half-inhibitory concentration (IC50) came out at 32 nM at SARS-CoV 3CL^pro, 553 nM against MERS-CoV 3CL^pro, 834 nM on HCoV-229E 3CL^pro and 19 nM at SARS-CoV-2 3CL^pro.

As to `CCC(CC)[C@H](NC(=O)C(F)F)C(=O)N1C[C@@H]2CCC[C@@H]2[C@H]1C(=O)NN(C[C@H]1CC(C)(C)NC1=O)C(=O)[C@H](F)Cl` [Example 8], the IC50 worked out at 256 nM against SARS-CoV 3CL^pro, 3020 nM against MERS-CoV 3CL^pro, 6710 nM against HCoV-229E 3CL^pro and 129 nM against SARS-CoV-2 3CL^pro.

On to `CCC(CC)[C@H](NC(=O)[C@H](F)Cl)C(=O)N1C[C@@H]2CCC[C@@H]2[C@H]1C(=O)NN(C[C@@H]1CC(C)(C)NC1=O)C(=O)[C@H](F)Cl` [Example 9, (2R)-N-[(1S)-1-[(3S,3aS,6aR)-3-[[[(2R)-2-chloro-2-fluoro-acetyl]-[[(3S)-5,5-dimethyl-2-oxo-pyrrolidin-3-yl]methyl]amino]carbamoyl]-3,3a,4,5,6,6a-hexahydro-1H-cyclopenta[c]pyrrole-2-carbonyl]-2-ethyl-butyl]-2-chloro-2-fluoro-acetamide], for which the half-inhibitory concentration (IC50) worked out at 7 nM against SARS-CoV 3CL^pro, 250 nM against MERS-CoV 3CL^pro, 241 nM at HCoV-229E 3CL^pro and 7 nM against SARS-CoV-2 3CL^pro.

Consider `C[C@@H]1C[C@H](CN(NC(=O)[C@@H]2[C@H]3CCC[C@H]3CN2C(=O)[C@@H](NC(=O)[C@@H]2CC2(F)F)C(C)(C)C)C(=O)[C@@H](F)Cl)C(=O)N1` [Example 29, (1S)-N-[(1S)-1-[(3S,3aS,6aR)-3-[[[(2S)-2-chloro-2-fluoro-acetyl]-[[(3R,5R)-5-methyl-2-oxo-pyrrolidin-3-yl]methyl]amino]carbamoyl]-3,3a,4,5,6,6a-hexahydro-1H-cyclopenta[c]pyrrole-2-carbonyl]-2,2-dimethyl-propyl]-2,2-difluoro-cyclopropanecarboxamide], for which the IC50 against SARS-CoV 3CL^pro came out at 93 nM; at MERS-CoV 3CL^pro it was 344 nM; against HCoV-229E 3CL^pro it was 233 nM; on SARS-CoV-2 3CL^pro, 36 nM.

As for `CC(C)(C)[C@H](NC(=O)[C@@H]1CC1(F)F)C(=O)N1C[C@@H]2CCC[C@@H]2[C@H]1C(=O)NN(C[C@H]1C(=O)N[C@H]2C[C@H]21)C(=O)[C@@H](F)Cl` [Example 39, (1S)-N-[(1S)-1-[(3S,3aS,6aR)-3-[[[(2S)-2-chloro-2-fluoro-acetyl]-[[(1S,4S,5S)-3-oxo-2-azabicyclo[3.1.0]hexan-4-yl]methyl]amino]carbamoyl]-3,3a,4,5,6,6a-hexahydro-1H-cyclopenta[c]pyrrole-2-carbonyl]-2,2-dimethyl-propyl]-2,2-difluoro-cyclopropanecarboxamide], the concentration for half-maximal inhibition (IC50) against SARS-CoV 3CL^pro was found to be 34 nM; against MERS-CoV 3CL^pro it was 289 nM; against HCoV-229E 3CL^pro, 207 nM; against SARS-CoV-2 3CL^pro, 29 nM.

`CC1(C)C[C@@H](CN(NC(=O)[C@@H]2[C@@H]3[C@H](CN2C(=O)[C@@H](NC(=O)[C@H](F)Cl)C(C)(C)C)C3(C)C)C(=O)[C@H](F)Cl)C(=O)N1` [Example 20]: the IC50 was 32 nM against SARS-CoV 3CL^pro, 1070 nM at MERS-CoV 3CL^pro, 2020 nM on HCoV-229E 3CL^pro and 24 nM against SARS-CoV-2 3CL^pro.

In the case of `CC1(C)C[C@H](CN(NC(=O)[C@@H]2[C@H]3CCC[C@H]3CN2C(=O)[C@@H](NC(=O)[C@@H]2CC2(F)F)C(C)(C)C)C(=O)[C@@H](F)Cl)C(=O)N1` [Example 2b, (1S)—N-[(1S)-1-[(3S,3aS,6aR)-3-[[[(2S)-2-chloro-2-fluoro-acetyl]-[[(3R)-5,5-dimethyl-2-oxo-pyrrolidin-3-yl]methyl]amino]carbamoyl]-3,3a,4,5,6,6a-hexahydro-1H-cyclopenta[c]pyrrole-2-carbonyl]-2,2-dimethyl-propyl]-2,2-difluoro-cyclopropanecarboxamide], the half-maximal inhibitory concentration (IC50) is 1720 nM at SARS-CoV 3CL^pro, above 10000 nM against MERS-CoV 3CL^pro, above 10000 nM at HCoV-229E 3CL^pro and 918 nM at SARS-CoV-2 3CL^pro.

As for `C[C@H]1C[C@H](CN(NC(=O)[C@@H]2[C@H]3CCC[C@H]3CN2C(=O)[C@@H](NC(=O)[C@@H]2CC2(F)F)C(C)(C)C)C(=O)[C@H](F)Cl)C(=O)N1` [Example 28, (1S)-N-[(1S)-1-[(3S,3aS,6aR)-3-[[[(2R)-2-chloro-2-fluoro-acetyl]-[[(3R,5S)-5-methyl-2-oxo-pyrrolidin-3-yl]methyl]amino]carbamoyl]-3,3a,4,5,6,6a-hexahydro-1H-cyclopenta[c]pyrrole-2-carbonyl]-2,2-dimethyl-propyl]-2,2-difluoro-cyclopropanecarboxamide], the 50% inhibitory concentration (IC50) against SARS-CoV 3CL^pro was 74 nM; at MERS-CoV 3CL^pro, 1160 nM; against HCoV-229E 3CL^pro it was 492 nM; against SARS-CoV-2 3CL^pro, 30 nM.

Take `CC1(C)CC(CN(NC(=O)[C@@H]2[C@H]3CCC[C@H]3CN2C(=O)[C@@H](NC(=O)[C@@H]2CC2(F)F)C(C)(C)C)C(=O)[C@H](F)Cl)C(=O)N1` (mixture of isomers) [Example 3, (1S)—N-[(1S)-1-[(3S,3aS,6aR)-3-[[[(2R)-2-chloro-2-fluoro-acetyl]-[rac-(5,5-dimethyl-2-oxo-pyrrolidin-3-yl)methyl]amino]carbamoyl]-3,3a,4,5,6,6a-hexahydro-1H-cyclopenta[c]pyrrole-2-carbonyl]-2,2-dimethyl-propyl]-2,2-difluoro-cyclopropanecarboxamide]: the IC50 turned out to be 28 nM on SARS-CoV 3CL^pro, 850 nM on MERS-CoV 3CL^pro, 2520 nM against HCoV-229E 3CL^pro and 23 nM against SARS-CoV-2 3CL^pro.

For the compound `CC1(C)C[C@@H](CN(NC(=O)[C@@H]2[C@H]3CCC[C@H]3CN2C(=O)[C@@H](NC(=O)[C@H](F)Cl)C(C)(C)C)C(=O)[C@H](F)Cl)C(=O)N1` [Example 14, (2R)-N-[(1S)-1-[(3S,3aS,6aR)-3-[[[(2R)-2-chloro-2-fluoro-acetyl]-[[(3S)-5,5-dimethyl-2-oxo-pyrrolidin-3-yl]methyl]amino]carbamoyl]-3,3a,4,5,6,6a-hexahydro-1H-cyclopenta[c]pyrrole-2-carbonyl]-2,2-dimethyl-propyl]-2-chloro-2-fluoro-acetamide], the 50% inhibitory concentration (IC50) against SARS-CoV 3CL^pro turned out to be 9 nM; at MERS-CoV 3CL^pro, 1240 nM; at HCoV-229E 3CL^pro, 1270 nM; at SARS-CoV-2 3CL^pro, 9 nM.

Take `CC1(C)C[C@@H](CN(NC(=O)[C@@H]2[C@H]3CCC[C@H]3CN2C(=O)[C@@H](NC(=O)[C@@H]2CC2(F)F)C(C)(C)C)C(=O)[C@H](F)Cl)C(=O)N1` [Example 4, (1S)-N-[(1S)-1-[(3S,3aS,6aR)-3-[[[(2R)-2-chloro-2-fluoro-acetyl]-[[(3S)-5,5-dimethyl-2-oxo-pyrrolidin-3-yl]methyl]amino]carbamoyl]-3,3a,4,5,6,6a-hexahydro-1H-cyclopenta[c]pyrrole-2-carbonyl]-2,2-dimethyl-propyl]-2,2-difluoro-cyclopropanecarboxamide]: the IC50 was determined as 15 nM on SARS-CoV 3CL^pro, 518 nM against MERS-CoV 3CL^pro, 838 nM against HCoV-229E 3CL^pro and 11 nM against SARS-CoV-2 3CL^pro.

Take `CC1(C)C[C@@H](CN(NC(=O)[C@@H]2[C@@H]3[C@H](CN2C(=O)[C@@H](NC(=O)[C@@H](F)Cl)C(C)(C)C)C3(C)C)C(=O)[C@@H](F)Cl)C(=O)N1` [Example 22, (2S)-2-chloro-N-[(1S)-1-[(1R,2S,5S)-2-[[[(2S)-2-chloro-2-fluoro-acetyl]-[[(3S)-5,5-dimethyl-2-oxo-pyrrolidin-3-yl]methyl]amino]carbamoyl]-6,6-dimethyl-3-azabicyclo[3.1.0]hexane-3-carbonyl]-2,2-dimethyl-propyl]-2-fluoro-acetamide]: the concentration for half-maximal inhibition (IC50) against SARS-CoV 3CL^pro was determined as 48 nM; against MERS-CoV 3CL^pro it was 1870 nM; against HCoV-229E 3CL^pro it was 3520 nM; at SARS-CoV-2 3CL^pro, 31 nM.

In the case of `CC1(C)C[C@@H](CN(NC(=O)[C@@H]2[C@H]3CCC[C@H]3CN2C(=O)[C@@H](NC(=O)[C@H](F)Cl)C(C)(C)C)C(=O)[C@@H](F)Cl)C(=O)N1` [Example 16], the 50% inhibitory concentration (IC50) was 33 nM against SARS-CoV 3CL^pro, 6160 nM against MERS-CoV 3CL^pro, above 10000 nM at HCoV-229E 3CL^pro and 22 nM against SARS-CoV-2 3CL^pro.

For `C[C@@H]1C[C@@H](CN(NC(=O)[C@@H]2[C@@H]3[C@H](CN2C(=O)[C@@H](NC(=O)[C@@H]2CC2(F)F)C(C)(C)C)C3(C)C)C(=O)[C@@H](F)Cl)C(=O)N1` [Example 34, (1S)-N-[(1S)-1-[(1R,2S,5S)-2-[[[(2S)-2-chloro-2-fluoro-acetyl]-[[(3S,5R)-5-methyl-2-oxo-pyrrolidin-3-yl]methyl]amino]carbamoyl]-6,6-dimethyl-3-azabicyclo[3.1.0]hexane-3-carbonyl]-2,2-dimethyl-propyl]-2,2-difluoro-cyclopropanecarboxamide], the IC50 on SARS-CoV 3CL^pro came out at 14 nM; against MERS-CoV 3CL^pro it was 80 nM; against HCoV-229E 3CL^pro, 37 nM; at SARS-CoV-2 3CL^pro it was 8 nM.
